In patent publication US9273043B2, “TRPV1 antagonists including dihydroxy substituent and uses thereof” (Purdue Pharma L.P., priority 2011, dated 2016):
Marks after values point to notes of the source that are not given here.

Test system: FCA-induced inflammation of the rat hind paw
Experiment: Freund's complete adjuvant (FCA) model of inflammatory pain, paw withdrawal threshold
Format: in vivo
Conditions: for % Reversal [mean]: rat FCA
Description: Test Animals: Each experiment uses rats weighing between 200-260 g at the start of the experiment. The rats are group-housed and have free access to food and water at all times, except prior to oral administration of a Compound of Formula (I) when food is removed for 16 hours before dosing. A control group acts as a comparison to rats treated with a Compound of Formula (I). The control group is administered the vehicle for the Compound of Formula (I). The volume of vehicle administered to the control group is the same as the volume of carrier and Compound of Formula (I) administered to the test group.
Inflammatory Pain: To assess the actions of a Compound of Formula (I) for the treatment or prevention of inflammatory pain, the Freund's complete adjuvant (“FCA”) model of inflammatory pain was used. FCA-induced inflammation of the rat hind paw is associated with the development of persistent inflammatory mechanical hyperalgesia and provides reliable prediction of the anti-hyperalgesic action of clinically useful analgesic drugs (Bartho et al., “Involvement of capsaicin-sensitive neurons in hyperalgesia and enhanced opioid antinociception in inflammation,” Naunyn-Schmiedeberg's Archives of Pharmacol. 342:666-670 (1990)). The right hind paw of each male, 6-week old Jcl:SD rat was administered a 50 μL intraplantar injection of 50% FCA (Sigma-Aldrich). 24 hour post-injection, the animal was assessed for response to noxious mechanical stimuli by determining the PWT, as described below. Rats were then administered a single injection of 0.1, 0.3, 1, 3, or 10 mg/kg of either the product prepared with Compound A155(a) and fumaric acid as described in Example 10, 20 mg/kg of an ibuprofen control (EMD Millipore Chemicals, Inc.), or vehicle as a control (0.5% weight/volume methylcellulose (400cP, Wako Pure Chemical Industries, Ltd., Osaka, Japan)/aqueous solution). […] Responses to noxious mechanical stimuli were then determined 1, 3, 5, and 7 hours post-administration. Percentage reversal of hyperalgesia for each animal was defined as: […]
With the exception of the controls (i.e., ibuprofen, vehicle) where the student's t-test was used, Dunnett's test was conducted for the % reversal. In either instance, values with p<0.05 were considered to be statistically significant. The % reversal results for administration of the product prepared with Compound A155(a) and fumaric acid as described in Example 10 and the respective controls are presented in Table 7.
Response to Mechanical Stimuli as an Assessment of Mechanical Hyperalgesia: The paw pressure assay was used to assess mechanical hyperalgesia. For this assay, hind paw withdrawal thresholds (PWT) to a noxious mechanical stimulus were determined using an analgesymeter (Model 37215, commercially available from Ugo Basile of Italy) as described in Stein, “Unilateral Inflammation of the Hindpaw in Rats as a Model of Prolonged Noxious Stimulation: Alterations in Behavior and Nociceptive Thresholds,” Pharmacol. Biochem. and Behavior 31:451-455 (1988). The maximum weight that could be applied to the hind paw was set at 250 g and the end point was taken as complete withdrawal of the paw. PWT was determined once for each rat at each time point and either only the affected (ipsilateral) paw was tested, or both the ipsilateral and contralateral (non-injured) paw were tested.

`CC1CN(c2ncc(C(O)CO)cc2F)CCN1C(=O)Nc1nc2cc(F)ccc2s1.O=C(O)C=CC(=O)O` (stereo not drawn) was tested, and the minimal effective dose (rat FCA model) was 0.1 mg/kg, the “% Reversal [mean]” value (0.1 mg/kg, 1 h after administration) was 31.9** % and the “% Reversal [mean]” value (0.1 mg/kg, 1 h after administration, listed as product prepared with Compound A155(a) and fumaric acid) was 31.9%. The “% Reversal [mean]” value (0.1 mg/kg, 3 h after administration) was 37.8** %, the “% Reversal [mean]” value (0.1 mg/kg, 3 h after administration, listed as product prepared with Compound A155(a) and fumaric acid) was 37.8% and the “% Reversal [mean]” value (0.1 mg/kg, 5 h after administration) was 31.3** %. The “% Reversal [mean]” value (0.1 mg/kg, 5 h after administration, listed as product prepared with Compound A155(a) and fumaric acid) was 31.3%, the “% Reversal [mean]” value (0.1 mg/kg, 7 h after administration) was 23.6** % and the “% Reversal [mean]” value (0.1 mg/kg, 7 h after administration, listed as product prepared with Compound A155(a) and fumaric acid) was 23.6%. For the same compound, the “% Reversal [mean]” value (0.3 mg/kg, 1 h after administration) was 65.0** %, the “% Reversal [mean]” value (0.3 mg/kg, 1 h after administration, listed as product prepared with Compound A155(a) and fumaric acid) was 65.0% and the “% Reversal [mean]” value (0.3 mg/kg, 3 h after administration) was 60.2** %. The “% Reversal [mean]” value (0.3 mg/kg, 3 h after administration, listed as product prepared with Compound A155(a) and fumaric acid) was 60.2%, the “% Reversal [mean]” value (0.3 mg/kg, 5 h after administration) was 54.1** % and the “% Reversal [mean]” value (0.3 mg/kg, 5 h after administration, listed as product prepared with Compound A155(a) and fumaric acid) was 54.1%. The “% Reversal [mean]” value (0.3 mg/kg, 7 h after administration) was 39.4** %, the “% Reversal [mean]” value (0.3 mg/kg, 7 h after administration, listed as product prepared with Compound A155(a) and fumaric acid) was 39.4% and the “% Reversal [mean]” value (1 mg/kg, 1 h after administration) was 79.4** %. For the same compound, the “% Reversal [mean]” value (1 mg/kg, 3 h after administration) was 84.1** %, the “% Reversal [mean]” value (1 mg/kg, 5 h after administration) was 78.2** % and the “% Reversal [mean]” value (1 mg/kg, 7 h after administration) was 70.5** %. The “% Reversal [mean]” value (3 mg/kg, 1 h after administration) was 80.3** %, the “% Reversal [mean]” value (3 mg/kg, 1 h after administration, listed as product prepared with Compound A155(a) and fumaric acid) was 80.3% and the “% Reversal [mean]” value (3 mg/kg, 3 h after administration) was 87.9** %. The “% Reversal [mean]” value (3 mg/kg, 3 h after administration, listed as product prepared with Compound A155(a) and fumaric acid) was 87.9%, the “% Reversal [mean]” value (3 mg/kg, 5 h after administration) was 86.6** % and the “% Reversal [mean]” value (3 mg/kg, 5 h after administration, listed as product prepared with Compound A155(a) and fumaric acid) was 86.6%. For the same compound, the “% Reversal [mean]” value (3 mg/kg, 7 h after administration) was 97.3** %, the “% Reversal [mean]” value (3 mg/kg, 7 h after administration, listed as product prepared with Compound A155(a) and fumaric acid) was 97.3% and the “% Reversal [mean]” value (10 mg/kg, 1 h after administration) was 102.5** %. The “% Reversal [mean]” value (10 mg/kg, 3 h after administration) was 94.1** %, the “% Reversal [mean]” value (10 mg/kg, 5 h after administration) was 97.3** % and the “% Reversal [mean]” value (10 mg/kg, 7 h after administration) was 93.1** %.
